Patent US20180280321A1, “COMPOSITIONS AND METHODS THAT INHIBIT QUORUM SENSING” (The Office of Innovation Commercialization, priority 2015, published 2018)
“Also recorded” adds a separate entry of the source. Like-named read-outs stand apart in the source and are kept apart here.

Columns and labels:
agr::P3 promoter [1] = assay type: cell-based, S. aureus
S. aureus = assay type: cell-based; settings: at concentrations that inhibit quorum sensing
[2] = tested on: RNAIII, psm α and hla transcription; assay type: cell-based, S. aureus
A549 cells = assay: Eukaryotic cytotoxicity, XTT assay; assay type: cell-based, human; settings: A549, 24-hour incubation, at concentrations required for agr-inhibition
Protocol: (§1) Sigma-Aldrich, St. Louis, Mo.) and phenazine methosulfate (PMS; Sigma-Aldrich, St. Louis, Mo.) were used to perform an XTT assay as previously described (Scuderio et al., 1988, Cancer Res. 48:4827-4833). After 24 hours, spent media was removed and fresh media containing the indicated drug concentrations or vehicle was added to the cells and incubated for an additional 24 hours. […] Cell viability was assessed by the metabolic reduction of tetrazolium measured at OD490. Data are presented as percent viable cells compared to vehicle control.

HEK293 cells = assay: Eukaryotic cytotoxicity, XTT assay; assay type: cell-based, human; settings: HEK293, 24-hour incubation, at concentrations required for agr-inhibition
Protocol: as §1

HepG2 cells = assay: Eukaryotic cytotoxicity, XTT assay; assay type: cell-based, human; settings: hepatocyte cell line (HepG2), 24-hour incubation, at concentrations required for agr-inhibition
Protocol: as §1

AgrC-WT isolate AH3469 = assay type: cell-based, S. aureus
AgrAC and P2-FAM complex = AgrAC and P2-FAM complex (Staphylococcus aureus, UniProt P0A0I7); assay type: binding, S. aureus; settings: EMSA, 2 μM AgrAC
[3] = target: AgrAC binding to agr promoter DNA (P2-FAM) (Staphylococcus aureus, UniProt P0A0I7); set-up: species or system S. aureus; settings: bead-based flow cytometry, biotinylated AgrAC on SA beads, P2-FAM 1.6 μM
AgrAC-C199S = AgrAC-C199S (Staphylococcus aureus, UniProt P0A0I7, C199S); assay type: binding, S. aureus; settings: SPR, His-tagged AgrAC-C199S on NTA biosensor, 25° C.
agr::P3 promoter [4] = assay type: cell-based; settings: agr-I S. epidermidis AH3408, 5 μg/mL OHM, 24 hours
USA300 isolate LAC = assay type: in vivo, SKH1 mice; settings: for bacterial burden at the site of infection: LAC infected, single OHM treatment
[5] = tested on: S. aureus LAC / LACΔagr in RAW 264.7 macrophages; assay type: cell-based, mouse; settings: LAC pre-treated with 5 μg/mL OHM, RAW 264.7, MOI 1:1; vs vehicle
[6] = tested on: S. aureus LAC / LACΔagr in human PMNs; assay type: cell-based
human PMNs = assay type: cell-based; settings: supernatant from OHM- versus vehicle-treated LAC, 5 μg/mL OHM, two hours
MRSA isolate LAC [7] = assay type: in vivo, SKH1 mice; settings: OHM injected subq near the site of infection four hours post-infection
MRSA isolate LAC [8] = assay type: in vivo; settings: STZ-treated diabetic C57BL/6 mice, OHM given along with 5×10^7 CFU LAC

O=C1c2cc(O)cc(O)c2C(=O)c2c(O)cc(CO)cc21 [OHM, 1,3,8-trihydroxy-6-(hydroxymethyl)anthracene-9,10-dione]
agr::P3 promoter activation (quorum sensing) (agr::P3 promoter [1]; agr-I, agr-II, agr-III, agr-IV reporter strains, OHM 100 to 0.05 μM): inhibited quorum sensing by all four agr types | in vitro agr-I transcription inhibition activity (agr::P3 promoter [1]; among polyhydroxyanthraquinones from Penicillium restrictum): most potent | bacterial growth (OD600) (S. aureus): do not impact bacterial growth; also recorded: absence of bactericidal or bacteriostatic effects | transcription of RNAIII [2]: decreased transcription | transcription of alpha-hemolysin (hla) [2]: decreased transcription | cell viability (toxicity) (A549 cells): non-toxic | cell viability (toxicity) (HEK293 cells): non-toxic | cell viability (toxicity) (HepG2 cells): non-toxic | agr-mediated Hla expression (lysis of rabbit RBCs) (AgrC-WT isolate AH3469): inhibited Hla expression | inhibition of AgrAC binding to agr promoter DNA (AgrAC and P2-FAM complex): dose-dependent inhibition | inhibition of AgrAC binding to agr promoter DNA [3]: dose-dependent inhibition | direct binding to immobilized AgrAC (AgrAC-C199S): bound directly | agr activation (agr::P3 promoter) (agr::P3 promoter [4]): significantly inhibited | bacterial burden at the site of infection (USA300 isolate LAC; day seven post-infection): reduced | bacterial burden at the site of infection (USA300 isolate LAC; day three post-infection): reduced | differences between OHM and vehicle treated mice (abscesses and ulcers) (USA300 isolate LAC; mouse, in vivo): no differences were observed | histological analysis of skin sections: abscess formation and ulceration (USA300 isolate LAC; mouse, in vivo): overall reduction in abscess formation and ulceration | local Hla expression at the site of infection (western blot) (USA300 isolate LAC; mouse, in vivo): decreased local Hla expression | local IL-1β in abscess tissue (multiplex) (USA300 isolate LAC; mouse, in vivo): significant reductions | local IL-6 in abscess tissue (multiplex) (USA300 isolate LAC; mouse, in vivo): significant reductions | local TNFα in abscess tissue (multiplex) (USA300 isolate LAC; mouse, in vivo): significant reductions | transcription of il-1β in abscess tissue (USA300 isolate LAC; mouse, in vivo): reduced transcription | transcription of il-6 in abscess tissue (USA300 isolate LAC; mouse, in vivo): reduced transcription | transcription of nlrp3 in abscess tissue (USA300 isolate LAC; mouse, in vivo): decreased transcription | transcription of tnfα in abscess tissue (USA300 isolate LAC; mouse, in vivo): reduced transcription | morbidity (assessed by weight loss) (USA300 isolate LAC; mouse, in vivo, 0.25 mg/kg): significantly inhibited | abscess formation (USA300 isolate LAC; mouse, in vivo, sc, 0.25 mg/kg): significantly inhibited | ulcer (dermonecrosis) formation (USA300 isolate LAC; mouse, in vivo, sc, 0.25 mg/kg): significantly inhibited | intracellular killing by mouse macrophages [5]: significantly increased intracellular killing | intracellular killing by human PMNs ([6]; LAC pre-treated with 5 μg/mL OHM, MOI 1:1, vs vehicle): significantly increased intracellular killing | opsonophagocytosis: total number and percent of bacteria phagocytosed ([6]; bacteria pre-treated with vehicle or OHM, human PMNs): equivalent | PMN survival in the presence of S. aureus supernatant (human PMNs): significantly increased survival | abscess formation (MRSA isolate LAC [7]): limits abscess formation | ulcer area (dermonecrosis) (MRSA isolate LAC [7]): limits abscess formation and dermonecrosis | abscess formation (MRSA isolate LAC [8]): limits abscess formation | ulcer formation (dermonecrosis) (MRSA isolate LAC [8]): limits abscess formation and dermonecrosis
